Assay [1] is filed under the species Rattus norvegicus. The experiment in a line: Tested to induce analgesia in hot plate test, expressed as percent of latency time (p<0.05). In kind it is functional. For orientation: In hot-plate and tail-flick tests a longer latency is read as antinociception.
Assay [2] relates to Rattus norvegicus. Nature of the assay: Tested for decrease in rectal temperature 5 min after ip injection. In kind it is functional.
Assay [3] is filed under the species Rattus norvegicus. The experiment in a line: Tested for percent immobility time in the ring test, expressed as % of control (p<0.01). In kind it is functional.
The species entered for assay [4] is Rattus norvegicus. The experiment in a line: Tested to induce analgesia in hot plate test, expressed as percent of latency time. In kind it is functional.
Assay [5] has as its system Rattus norvegicus. The experiment in a line: Tested for decrease in rectal temperature 10 min after ip injection. It counts as functional.
A further assay concerns the target Cannabinoid receptor 1 (Rattus norvegicus, UniProt P20272). Nature of the assay: Concentration required to displace 0.4 nM [3H]SR-141,716A from CB1 receptor in rat brain preparations in the presence of 0.1 mM phenylmethyl sulfonyl fluoride. It counts as tissue-based.

Chain of Cannabinoid receptor 1 (P20272 whole entry): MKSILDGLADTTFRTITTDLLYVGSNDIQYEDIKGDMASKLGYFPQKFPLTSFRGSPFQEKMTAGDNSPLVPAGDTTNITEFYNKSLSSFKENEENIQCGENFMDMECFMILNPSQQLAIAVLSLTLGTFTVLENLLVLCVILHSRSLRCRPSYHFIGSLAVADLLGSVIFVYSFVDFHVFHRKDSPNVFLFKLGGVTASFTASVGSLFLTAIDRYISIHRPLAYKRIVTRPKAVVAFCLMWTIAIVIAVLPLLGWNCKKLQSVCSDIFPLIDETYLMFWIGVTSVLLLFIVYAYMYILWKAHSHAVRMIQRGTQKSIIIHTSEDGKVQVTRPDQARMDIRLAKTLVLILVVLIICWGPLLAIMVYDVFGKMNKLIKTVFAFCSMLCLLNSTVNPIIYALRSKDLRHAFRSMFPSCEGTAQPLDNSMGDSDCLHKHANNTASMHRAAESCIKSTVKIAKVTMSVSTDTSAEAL

In the case of `CC/C=C\C/C=C\C/C=C\C/C=C\C/C=C\CCCC(=O)NCCc1ccc(O)c(O)c1`, the Latency time in the assay filed under Rattus norvegicus [1] came out at 135%. In the assay on Rattus norvegicus [2], the Rectal temperature was found to be 1.64 °C. The Immobility time in the assay listed under Rattus norvegicus [3] worked out at 658%.

In the assay listed under Rattus norvegicus [4], `CCCCC/C=C\C/C=C\C/C=C\CCCCCCC(=O)NCCc1ccc(O)c(O)c1` gave a Latency time of 129%. The results for the Rectal temperature in the assay on Rattus norvegicus [2] and with Rattus norvegicus [5] were 0.43 °C and 0.7 °C, respectively. Further, in the assay filed under Rattus norvegicus [3], the Immobility time came to 693%.

Regarding `CC/C=C\C/C=C\C/C=C\C/C=C\CCCCC(=O)NCCc1ccc(O)c(O)c1`, in the assay listed under Rattus norvegicus [4], the Latency time was 120%. Moreover, the Rectal temperature with Rattus norvegicus [2] came to 1.45 °C; in the assay on Rattus norvegicus [5] it was 1.67 °C. Also, the Immobility time in the assay filed under Rattus norvegicus [3] amounted to 570%.

`CC/C=C\C/C=C\C/C=C\C/C=C\C/C=C\C/C=C\CCC(=O)NCCc1ccc(O)c(O)c1` displayed a Latency time in the assay listed under Rattus norvegicus [1] of 296%. The figures for the Rectal temperature in the assay with Rattus norvegicus [2] and in the assay on Rattus norvegicus [5] were 0.9 °C and 1.1 °C, respectively. In the assay listed under Rattus norvegicus [3], this compound came in with an Immobility time of 674%.

Regarding `CC/C=C\C/C=C\C/C=C\C/C=C\C/C=C\CCCCCC(=O)NCCc1ccc(O)c(O)c1`, the Ki at Cannabinoid receptor 1 came out at 1370 nM. Moreover, the Latency time in the assay listed under Rattus norvegicus [1] came to 144%. Also, the Rectal temperature turned out to be 1.35 °C in the assay with Rattus norvegicus [2] and 1.82 °C in the assay with Rattus norvegicus [5]. The compound further gave an Immobility time in the assay filed under Rattus norvegicus [3] of 610%.

Consider `CCCCC/C=C\C/C=C\CC/C=C\CCCC(=O)NCCc1ccc(O)c(O)c1`, for which the Ki on Cannabinoid receptor 1 came to 1720 nM. Besides, the Latency time in the assay listed under Rattus norvegicus [4] was 162%. The Rectal temperature in the assay with Rattus norvegicus [2] worked out at 0.5 °C; with Rattus norvegicus [5], 0.4 °C. This compound also had an Immobility time in the assay filed under Rattus norvegicus [3] of 528%.

`CCCCC/C=C\C/C=C\C/C=C\C/C=C\CCCC(=O)NCCO` [ANANDAMIDE]: the Latency time in the assay filed under Rattus norvegicus [4] was found to be 165%. Also, the results for the Rectal temperature in the assay with Rattus norvegicus [2] and in the assay on Rattus norvegicus [5] were 1.93 °C and 2.53 °C, respectively. The same compound displayed an Immobility time in the assay listed under Rattus norvegicus [3] of 750%.

For `CCCCC/C=C\C/C=C\C/C=C\C/C=C\CCCC(=O)NCCc1ccc(O)c(O)c1` [ARACHIDONOYL DOPAMINE], on Cannabinoid receptor 1, the Ki was found to be 380 nM. Also, the Latency time in the assay filed under Rattus norvegicus [1] is 222%. Further, the Rectal temperature amounted to 1.35 °C in the assay with Rattus norvegicus [2] and 1.27 °C in the assay on Rattus norvegicus [5]. In addition, the Immobility time in the assay filed under Rattus norvegicus [3] is 500%.

In general, Ki refers to a measure of affinity in units of concentration, obtained from inhibition or displacement.
